The values below come from the Bradley open melting point set (2014).

SMILES strings stand for the structures. “And” between values parts separate entries of the source, which are not always exact repeats. Identical values can stand only once.

One may read the melting point as the temperature of the solid-liquid transition.

For `C=C1N(C(C)=O)c2ccccc2C1(C)C(=O)OC` (configuration not stated), the melting point worked out at 60 °C.

On to `ClC1C(Cl)C(Cl)C(Cl)C(Cl)C1Cl` (configuration not stated) [Lindane], for which the melting point came out at 112 °C.

`N#Cc1ccncc1I` [4-cyano-3-iodopyridine] had a melting point of 121 °C.

The compound `CCCCCCCOc1ccc(C(=O)O)cc1` [4-n-heptyloxybenzoic acid] showed a melting point of 93 °C.

As for `C=CCOc1ccc(CC(=O)O)cc1Cl` [alclofenac], the melting point is 92 °C.

Turning to `COc1ccc(/N=N/c2c(N)nn3c(C(F)(F)F)cc(C)nc23)cc1`, the melting point was 159 °C.

With `COc1ccccc1/C=C(/C#N)c1nc2ccccc2s1`, the melting point stood at 159 °C.

For `O=C(O)CC(S)C(=O)O` (configuration not stated) [mercaptosuccinic acid], the melting point was 152 °C.

Consider `CCCCCCCCOc1ccc(N(NC(=O)OC(C)(C)C)C(=O)OC(C)(C)C)cc1OCCCCCCCC`, for which the melting point worked out at 56 °C.

Compound `OCc1ccc(-c2ccccc2)cc1` [4-biphenylmethanol] registered a melting point of 46 °C.

For `COc1ccc(/C(C)=C/C(C)=O)cc1` [(3E)-4-(4-methoxyphenyl)pent-3-en-2-one], the melting point worked out at 53 °C.

On to `OCc1ccccc1OC1OC(CO)C(O)C(O)C1O` (configuration not stated) [2-(Hydroxymethyl)phenyl hexopyranoside], for which the melting point came out at 199 °C.

In turn, `Cc1ccccc1N1C(=O)c2cc(S(N)(=O)=O)c(Cl)cc2NC1C` (configuration not stated) [metolazone] registered a melting point of 252 °C.

`Cc1ccc(C)c(B(O)O)c1` [2,5-dimethylbenzeneboronic acid] gave a melting point of 180 °C.

On to `N#Cc1c(Cl)cccc1Cl` [2,6-Dichlorobenzonitrile], for which the melting point came out at 144 °C.

Regarding `Cl/C=C\Cl` [cis-1,2-dichloroethylene], the melting point was -80 °C.

Compound `Cc1ccc(C(=O)/C=C/c2ccc(-c3ccccc3)o2)o1` had a melting point of 123 °C.

Consider `CC(=O)OC1CCC2(C)C(CC(=O)C3C4CCC(=O)C4(C)CCC32)C1` (configuration not stated) [7,17-dioxoandrostan-3-yl acetate], for which the melting point was found to be 165 °C.

`CCOC(=O)C(=O)C(=O)OCC` [diethyl ketomalonate] returned a melting point of -70 °C.

With `c1ccc(-c2ccnc3c2ccc2c(-c4ccccc4)ccnc23)cc1` [bathophenanthroline], the melting point is 220 °C.

The compound `O=C(O)CCC(=O)c1ccc(-c2ccccc2)cc1` [fenbufen] registered a melting point of 186 °C.

On to `CCOc1ccc(NC(C)=O)cc1` [phenacetin], for which the melting point worked out at 134 °C.

The compound `CCN(CC)c1ccc(C=O)cc1` [4-diethylaminobenzaldehyde] returned a melting point of 40 °C.

`Cc1cc(C)cc(C=O)c1` [3,5-dimethylbenzaldehyde] yielded a melting point of 9 °C.

`COc1ccccc1N` [o-anisidine] gave a melting point of 6 °C.

The compound `[C-]#[N+]c1c(C)cccc1C` [2,6-dimethylphenyl isocyanide] displayed a melting point of 74 °C.

`OB(O)c1ccc(C(F)(F)F)cc1Cl` [2-chloro-4-(trifluoromethyl)benzeneboronic acid] gave a melting point of 111 °C.

Take `CC(C)Cc1ccc(C(C)C(=O)O)cc1` (configuration not stated) [Ibumetin]: the melting point stood at 75 °C.

`c1ccc(CCc2ccc(CCc3ccccc3)cc2)cc1` [1,4-bis(2-phenylethyl)benzene] displayed a melting point of 89 °C.

For `O=C(O)c1ccc(F)c(F)c1` [3,4-difluorobenzoic acid], the melting point was determined as 123 °C.

The compound `O[C@@H]1[C@H](O)[C@@H](O)OC[C@H]1O` [D-lyxose] came in with a melting point of 112 °C.

As to `NC(=O)N1c2ccccc2C=Cc2ccccc21` [Carbamazepine], the melting point was found to be 190 °C.

With `Cc1ccc(C)c(O)c1` [2,5-dimethylphenol], the melting point was 74.8 °C and 76 °C.

`C1CCCCCCCCCCC1` [Cyclododecane] had a melting point of 61 °C.

As to `OC1CC2=C(CCCC2)CC1O` (configuration not stated) [1,2,3,4,5,6,7,8-octahydronaphthalene-2,3-diol], the melting point was determined as 121 °C.

For `CCCCCCCCCCCO` [Undecan-1-ol], the melting point is 11 °C.

On to `NNc1cc(Cl)ccc1Cl` [2,5-dichlorophenylhydrazine], for which the melting point amounted to 104 °C.

Compound `O=Cc1cccnc1` [pyridine-3-carboxaldehyde] yielded a melting point of 8 °C.

The compound `CCCCCCCCOc1cc(N(NC(=O)OC(C)(C)C)C(=O)OC(C)(C)C)cc(OCCCCCCCC)c1OCCCCCCCC` came in with a melting point of 73.5 °C.

`CCOC(=O)/C(C#N)=N\Nc1ccccc1[N+](=O)[O-]` [Ethyl (2Z)-cyano[(2-nitrophenyl)hydrazono]acetate]: the melting point is 103 °C.

The compound `CCCCCCCCCCCCCCCCCC(=O)O` [stearic acid] came in with a melting point of 71 °C.

`CCCCC1CCCCC1` [butylcyclohexane]: the melting point was -75 °C.

`COC(=O)c1cc(C)n(CN(Cn2nc(C(=O)OC)cc2C)c2ccccc2)n1` had a melting point of 125 °C.

On to `O=C(O)c1cc(F)cc(F)c1O` [3,5-difluorosalicylic acid], for which the melting point amounted to 189 °C.

`Cc1cc(CO)c(O)c(CO)c1` [2,6-bis(hydroxymethyl)-p-cresol] displayed a melting point of 123 °C.

On to `CCCCCCCCCCOc1cc(N(NC(=O)OC(C)(C)C)C(=O)OC(C)(C)C)cc(OCCCCCCCCCC)c1OCCCCCCCCCC`, for which the melting point is 56 °C.

`N#CCc1ccccc1[N+](=O)[O-]` [o-nitrophenylacetonitrile] registered a melting point of 84 °C.

Consider `C=CC(=O)O` [acrylic_acid], for which the melting point amounted to 13 °C.

The compound `CC1=NC2=CCC=CC2=C1C#N` [2-methyl-1H-indole-3-carbonitrile] displayed a melting point of 213 °C.

`COCCOC` [1,2-dimethyloxyethane] came in with a melting point of -58 °C.

On to `Cc1ccc(S(=O)(=O)NC2CCCCC2)cc1` [N-cyclohexyl-p-toluenesulfonamide], for which the melting point is 88 °C.

In turn, `Brc1n[nH]c(Br)c1Br` [3,4,5-tribromo-1h-pyrazole] had a melting point of 186 °C.

Compound `CCCCCCCCCCCCO[C@@H]1O[C@H](CO)[C@@H](O[C@H]2O[C@H](CO)[C@@H](O)[C@H](O)[C@H]2O)[C@H](O)[C@H]1O` [Dodecyl 4-O-alpha-D-glucopyranosyl-beta-D-glucopyranoside] gave a melting point of 150 °C.

The compound `c1ccc2c(c1)ccc1cc3c(ccc4ccccc43)cc12` [Dibenz[ah]anthracene] came in with a melting point of 269 °C.

As to `Oc1ccc2[nH]ccc2c1` [5-hydroxyindole], the melting point turned out to be 109 °C.

Compound `Cc1cncc(C)n1` [2,6-dimethylpyrazine] came in with a melting point of 41 °C.

`CC(C)(C)OC(=O)N[C@@H](Cc1ccccc1)C(=O)O` [boc-phenylalanine] yielded a melting point of 87 °C.

With `Nc1ccccc1C(F)(F)F` [2-(trifluoromethyl)aniline], the melting point was -30 °C and -29 °C.

For the compound `OB(O)c1ccccc1OC(F)(F)F` [2-(trifluoromethoxy)benzeneboronic acid], the melting point was found to be 119 °C.

`Nc1ccc([N+](=O)[O-])cc1` [p-nitroaniline]: the melting point is 150 °C.

Regarding `Nc1ccc(I)cc1` [p-iodoaniline], the melting point was 63 °C.

Regarding `O=C1/C(=N/Nc2cccc([N+](=O)[O-])c2)C(C(F)(F)F)=NN1c1ccccc1`, the melting point came to 151 °C.
